From US20260167679A1, “FUSION PROTEIN TARGETING MITOCHONDRIA, METHOD OF MAKING AND USE THEREOF” (UNIVERSITY OF ROCHESTER, priority 2020, published 2026) come the findings set out here.

What all share (type): in vivo, Caenorhabditis elegans
In assay [1] the test system is C. elegans. The assay is described as follows: ETC inhibitor assays, survival of animals. The protocol: Experiments were performed on at least three separate days, using 15-100 young adult animals per plate. Seeded plates were supplemented with rotenone (50 μM final concentration), antimycin A (50 μM final concentration), or oligomycin A (31 μM final concentration) 24 h before animals were transferred onto them. For azide toxicity, animals were placed in M9 buffer with 250 mM azide. Control plates were kept in the dark, and experimental plates were exposed to 1 Hz light (Quantum LED, 0.02 mW/mm^2) for the duration of the experiment. For all toxins, animals that were moving or those that moved in response to a light touch to the head were scored as alive. For rotenone, surviving animals were scored after 5 h. For antimycin A, animals were scored 16 h after exposure. For azide, animals were exposed for 1 h in M9 and allowed to recover for 1 h on a seeded culture plate and then survival was scored. Azide experimental plates were exposed to light (XCite LED, 0.19 mW/mm^2) for the duration of azide treatment and recovery. […]. For oligomycin A, animals were scored 18 h after exposure.
(§1) Experiments were carried out using a hypoxic chamber (Coy Laboratory Products, 5%/95% H2/N2 gas, palladium catalyst) at 26° C. with 50-100 animals per plate. O2 was <0.01%. Hypoxic preconditioning (PC) duration was 4 h, and control animals were incubated at 26° C. in room air for the same time. 1 Hz illumination (Quantum LED, 0.02 mW/mm^2) was carried out during PC period or during the hypoxic period. Hypoxic exposure was for 18.5, 21 h after PC. Twenty-four hours after hypoxia exposure, animals that were moving or those that moved in response to a light touch to the head were scored as alive. Data from days where PC was at least 15% effective for both +ATR and −ATR were used. Animals supplemented with ATR were allowed to lay eggs onto plates with no ATR that were subsequently used for HR experiments to minimize confounding effects of ATR. ATR from the parent animal was sufficient to provide active mtON in progeny as tested by the azide toxin assay described above. […] FCCP dissolved in ethanol was deposited onto seeded NGM plates.

Assay [2] relates to C. elegans. The assay is described as follows: Hypoxia and reoxygenation with hypoxic preconditioning. The note with it: +ATR, baseline survival, n=12 independent experiments. How it is done:
as §1

In assay [3] the test system is C. elegans. The assay is described as follows: Lifespan of mtON-expressing worms. From the text:
Light treatment began at day 1 of adulthood for all experiments, a, Survival curves of mtON-expressing animals (extrachromosomal array). […] One-way ANOVA with Tukey's test; n=30 animals for day 4 conditions and 40 animals for day 10. […] The dotted arrow represents the molecular mechanisms to be investigated that link Δψm to aged physiology.
A) survival curve with the same conditions as FIG. 15B, but with light intensity (0.005 mW/cm2) below the threshold for mtON activation (0.01 mW/cm2). […] B) Survival curves of mtON-expressing animals versus mtON-expressing animals in a long-lived genetic background containing a constitutively active AMPK mutation.
Strain APW32 expresses mtON as an extrachromosomal array (mtON ext. chr. array), and strain APW273 expresses mtON in single copy through CRISPR/Cas9 genome integration (mtON CRISPR). See methods section for genotype details. Light intensity was varied to maintain temperature as best as possible, and proximal temperature readings directly adjacent to assay plates are reported to show local temperature variability from different incubators and from different light sources. All incubators were set to 20° C.

On to `CC1=C(/C=C/C(C)=C/C=C/C(C)=C/C=O)C(C)(C)CCC1` [ATR, all trans-retinal, reference compound], for which the survival entry in assay [1] (50 μM rotenone for 5 hours, +ATR −light (ATR alone)) is “protective”; in assay [1] (azide toxin assay, progeny of ATR-supplemented parents, +ATR −light), 27.5%. Besides, the “survival after hypoxia and reoxygenation (baseline)” value in assay [2] is reported as 49.7+/−20.3%. The lifespan result in assay [3] (ATR and light in wild-type animals) is given as “did not affect lifespan”. Besides, the lifespan or physiology entry in assay [3] (ATR supplementation alone) is recorded as “does not affect lifespan or physiology”.

As for `N#CC(C#N)=NNc1ccc(OC(F)(F)F)cc1` [FCCP, carbonyl cyanide p-(trifluoromethoxy)phenylhydrazone, reference compound], the lifespan result in assay [3] (FCCP on its own) is listed as “no effect on lifespan”.
